The source made the active and inactive calls. For most assays here, no stated cut-off is given here; in the data, actives have a measured EC50 and inactives only a lower limit.
Columns and labels:
[1] = target: Sphingosine 1-phosphate receptor 2 (Homo sapiens, UniProt O95136); test: Dose Response Cell Based Assay for Agonists of the S1P2 Receptor of Purchased Analogues. [Related pubchem assays: 729, 843, 854, 736 ]; format: functional
[2] = target: Mothers against decapentaplegic homolog 3 (Homo sapiens, UniProt P84022); test: Smad3 binding inhibitors, lysate ELISA, dose response, cell lysate, secondary confirmation, chemiluminescent ELISA, HEK293 lysate (AID 1058); format: functional
Chain of Mothers against decapentaplegic homolog 3 (P84022 whole entry): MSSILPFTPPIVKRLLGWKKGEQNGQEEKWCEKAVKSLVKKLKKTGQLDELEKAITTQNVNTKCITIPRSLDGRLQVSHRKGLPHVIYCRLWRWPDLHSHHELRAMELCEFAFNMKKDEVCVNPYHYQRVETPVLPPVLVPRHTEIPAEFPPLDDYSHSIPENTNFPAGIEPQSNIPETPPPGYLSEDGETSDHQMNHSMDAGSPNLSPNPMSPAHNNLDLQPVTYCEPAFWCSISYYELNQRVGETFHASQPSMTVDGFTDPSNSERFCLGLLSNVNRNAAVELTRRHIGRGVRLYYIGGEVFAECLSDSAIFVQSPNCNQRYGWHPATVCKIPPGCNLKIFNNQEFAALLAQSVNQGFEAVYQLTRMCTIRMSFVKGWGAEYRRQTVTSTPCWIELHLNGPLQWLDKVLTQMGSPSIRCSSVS

Estrogen receptor = target: T1, Estrogen receptor (Homo sapiens, UniProt P03372); test: ERα–SRC-3 coactivator interaction inhibitors, confirmation, orthogonal assay, biochemical, ELISA, streptavidin-HRP readout (AID 1079)
T1 sequence (P03372 whole entry): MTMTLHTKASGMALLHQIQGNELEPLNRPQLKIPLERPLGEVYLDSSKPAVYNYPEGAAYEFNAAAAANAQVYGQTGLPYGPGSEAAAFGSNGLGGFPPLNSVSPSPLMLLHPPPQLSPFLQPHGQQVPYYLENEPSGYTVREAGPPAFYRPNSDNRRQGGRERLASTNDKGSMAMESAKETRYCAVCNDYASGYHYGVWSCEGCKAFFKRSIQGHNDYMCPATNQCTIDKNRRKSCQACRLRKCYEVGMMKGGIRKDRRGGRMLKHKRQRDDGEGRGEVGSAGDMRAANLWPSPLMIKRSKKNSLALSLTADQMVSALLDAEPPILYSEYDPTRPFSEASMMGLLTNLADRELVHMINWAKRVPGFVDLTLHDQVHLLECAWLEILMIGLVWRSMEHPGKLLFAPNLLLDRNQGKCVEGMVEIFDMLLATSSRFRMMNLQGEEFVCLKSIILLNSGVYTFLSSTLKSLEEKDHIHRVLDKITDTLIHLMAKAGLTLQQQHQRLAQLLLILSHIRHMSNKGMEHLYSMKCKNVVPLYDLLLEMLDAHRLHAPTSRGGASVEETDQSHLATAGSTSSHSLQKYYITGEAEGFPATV

[3] = target: 5-hydroxytryptamine receptor 1E (Homo sapiens, UniProt P28566); test: Counterscreen assay for S1P3 antagonists: Dose response cell-based high throughput screening assay to identify antagonists of the 5-Hydroxytryptamine Receptor Subtype 1E (5HT1E). [Related pubchem assays: 1429, 485 ]; format: functional
Chain of 5-hydroxytryptamine receptor 1E (P28566 whole entry): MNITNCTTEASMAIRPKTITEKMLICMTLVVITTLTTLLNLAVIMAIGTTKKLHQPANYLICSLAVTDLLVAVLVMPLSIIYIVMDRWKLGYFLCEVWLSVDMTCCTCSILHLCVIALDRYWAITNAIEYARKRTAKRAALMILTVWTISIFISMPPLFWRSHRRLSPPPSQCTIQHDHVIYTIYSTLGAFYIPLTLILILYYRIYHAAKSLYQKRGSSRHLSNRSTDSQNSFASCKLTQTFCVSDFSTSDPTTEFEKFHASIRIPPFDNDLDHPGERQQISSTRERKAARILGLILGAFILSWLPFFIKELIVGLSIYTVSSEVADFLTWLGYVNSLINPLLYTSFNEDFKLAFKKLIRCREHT

[4] = target: Sphingosine 1-phosphate receptor 3 (Homo sapiens, UniProt Q99500); test: Dose response cell-based high throughput screening assay for antagonists of the Sphingosine 1-Phosphate Receptor 3 (S1P3). [Related pubchem assays: 1429, 485 ]; format: functional
Chain of Sphingosine 1-phosphate receptor 3 (Q99500 whole entry): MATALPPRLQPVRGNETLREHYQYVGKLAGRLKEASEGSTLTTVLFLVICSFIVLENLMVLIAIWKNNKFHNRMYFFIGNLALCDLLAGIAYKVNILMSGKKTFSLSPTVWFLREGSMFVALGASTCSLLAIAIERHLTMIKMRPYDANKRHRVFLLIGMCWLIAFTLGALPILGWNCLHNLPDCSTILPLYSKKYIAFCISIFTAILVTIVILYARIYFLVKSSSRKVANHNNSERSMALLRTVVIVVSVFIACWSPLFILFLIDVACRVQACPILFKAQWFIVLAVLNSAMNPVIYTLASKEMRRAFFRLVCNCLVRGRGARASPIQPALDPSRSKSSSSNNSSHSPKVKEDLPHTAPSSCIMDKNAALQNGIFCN

[5] = Luminescence Cell-Based Dose Response HTS to Identify Inhibitors of 5'UTR Stem-Loop Driven Prion Protein mRNA Translation in H4 Neuroglioblastoma Cells. [Related pubchem assays: 1827 (Project Summary), 1813 (Primary HTS)]; format: functional
BJ [6] = test: cytotoxicity toward BJ-TERT fibroblasts, dose response, cell-based, RAS-independent, luminescence (AID 1933); format: functional; details: Homo sapiens
BJ [7] = test: cells; format: functional, cell-based; details: Homo sapiens
[8] = Luminescence-based dose response cell-based high throughput screening assay for cytotoxic compounds using the IEC-6 intestinal epithelial cell line. [Related pubchem assays: 1858 (Summary AID.), 1825 (Counterscreen.), 1907 (Confirmation screen.)]; format: functional
[9] = inhibitors of intracellular T. cruzi replication, confirmation, NIH3T3 host cells, beta-gal luminescence (AID 2044); format: functional, cell-based;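 further: intracellular parasites grown in NIH/3T3 mouse fibroblasts as host cells; luminescent beta-galactosidase reporter signal from transgenic T. cruzi replicating inside host cells; inhibitors lower the luminescence signal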
[10] = cytotoxicity toward DRD oncogenic fibroblasts, dose response, cell-based, non-viral oncogenic, luminescence (AID 1934); format: functional; details: Homo sapiens
[11] = inhibitors of firefly luciferase expression or activity, dose response, H4 neuroglioma cells, luminescence (AID 1990); format: functional, cell-based
Streptococcus = test: Group A Streptococcus viability loss, dose response, counter-screen for streptokinase expression inhibitor project, luminescence, BacTiterGlo (AID 1915); format: functional, organism-based;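 further: potency for reduction of bacterial viability or growth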
[12] = test system: Streptococcus sp. 'group A'; test: growth inhibition of control SK(-) GAS strain, dose response, counter-screen for streptokinase expression inhibitor project, luminescence, kanamycin, BacTiterGlo, confirmation (AID 1900); format: functional, organism-based
[13] = cytotoxicity toward NIH3T3 fibroblasts, dose response, counter-screen, cell-based, ATP luminescence, mouse fibroblasts (AID 2010); format: functional;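 further: cells exposed to compound for about 90 hours before reading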
BJ [14] = test: cytotoxicity toward BJ-TERT-LT-ST fibroblasts, dose response, cell-based, RAS-independent, luminescence (AID 1935); format: functional; details: Homo sapiens;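 further: BJ fibroblasts immortalized with TERT plus LT and ST oncogenes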

Chain of Sphingosine 1-phosphate receptor 2 (O95136 whole entry): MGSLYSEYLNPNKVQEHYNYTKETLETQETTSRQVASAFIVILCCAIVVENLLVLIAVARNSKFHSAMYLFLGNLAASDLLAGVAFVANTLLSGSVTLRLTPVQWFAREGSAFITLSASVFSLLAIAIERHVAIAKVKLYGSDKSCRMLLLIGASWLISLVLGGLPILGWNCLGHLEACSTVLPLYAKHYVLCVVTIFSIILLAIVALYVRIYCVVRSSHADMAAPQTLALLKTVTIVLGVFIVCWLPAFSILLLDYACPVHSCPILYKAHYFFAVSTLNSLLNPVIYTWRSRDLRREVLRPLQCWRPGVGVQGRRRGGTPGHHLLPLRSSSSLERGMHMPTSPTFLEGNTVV

Question: With `Cc1cc(C(=O)COC(=O)C2CSC3(C)CCC(=O)N23)c(C)n1Cc1ccccc1` (stereo unspecified) as the compound, how does the EC50 [1] read?
Answer: > 30 µM (not active)

Question: For `Oc1cc2c(cc1C(c1ccc3c(c1)OCO3)N1CCOCC1)OCO2` (stereo unspecified), which IC50 [2] is on record?
Answer: > 40 µM (not active)

Question: With `O=C(CCCCCn1c(=S)[nH]c2ccccc2c1=O)N1CCN(c2ccc(C(F)(F)F)cc2)CC1` as the compound, how does the IC50 (Estrogen receptor) read?
Answer: 42.8 µM (not active)

Question: With `Cc1ccc(NC(=O)C(OC(=O)c2ccc(F)cc2)c2ccccc2)cc1Cl` (stereo unspecified) as the compound, how does the IC50 [3] read?
Answer: 15.6 µM (not active)

Question: What about the IC50 [4] of the same compound?
Answer: 6.4 µM (active)

Question: What does the source list for `COc1ccccc1-c1nnc(Nc2nc3c(OC)cccc3s2)o1`?
Answer: EC50 [5]: 5.65 µM (active); EC50 (BJ [6]): 0.904 µM (active); EC50 (BJ [7]): 0.635 µM (active); IC50 [8]: 0.886 µM (active); EC50 [9]: 0.559 µM (active); EC50 [10]: 28.9 µM (inconclusive); EC50 [11]: 8.66 µM (inconclusive); EC50 (Streptococcus): > 150 µM (inconclusive); EC50 [12]: 1.67 µM (active); EC50 [13]: 0.576 µM (active); EC50 (BJ [14]): 0.457 µM (inconclusive)

— ChEMBL document CHEMBL1201862, “PubChem BioAssay data set” (2004)
